# Reference: ChEMBL document CHEMBL4020831, “Discovery of GDC-0853: A Potent, Selective, and Noncovalent Bruton's Tyrosine Kinase Inhibitor in Early Clinical Development” (J Med Chem, 2018)
# Legend:
# Rattus norvegicus [1] = test: Antiinflammatory activity in Lewis rat collagen-induced arthritis model assessed as reduction in ankle diameter AUC at 0.5 mg/kg, po administered bid for 16 days relative to control; format: functional; conditions: 384 h
# [2] = Clearance in human liver microsomes at 1 uM incubated up to 60 mins by LC-MS/MS method; format: ADME, microsome
# [3] = Volume of distribution in rat at 0.2 mg/kg, iv or 1 mg/kg, po administered as single dose via cassette dosing; format: ADME, organism-based; conditions: in vivo
# [4] = Oral bioavailability in rat at 1 mg/kg administered as single dose via cassette dosing; format: ADME, organism-based; conditions: in vivo
# Rattus norvegicus [5] = test: Antiinflammatory activity in Lewis rat collagen-induced arthritis model assessed as reduction in ankle diameter AUC at 2 mg/kg, po administered bid for 16 days relative to control; format: functional; conditions: 384 h
# BLK = BLK (Homo sapiens, UniProt P51451); test: Inhibition of recombinant human full length His-tagged BLK expressed in baculovirus at 1 uM by Z'-LYTE assay
# Sequence of BLK (P51451 whole entry): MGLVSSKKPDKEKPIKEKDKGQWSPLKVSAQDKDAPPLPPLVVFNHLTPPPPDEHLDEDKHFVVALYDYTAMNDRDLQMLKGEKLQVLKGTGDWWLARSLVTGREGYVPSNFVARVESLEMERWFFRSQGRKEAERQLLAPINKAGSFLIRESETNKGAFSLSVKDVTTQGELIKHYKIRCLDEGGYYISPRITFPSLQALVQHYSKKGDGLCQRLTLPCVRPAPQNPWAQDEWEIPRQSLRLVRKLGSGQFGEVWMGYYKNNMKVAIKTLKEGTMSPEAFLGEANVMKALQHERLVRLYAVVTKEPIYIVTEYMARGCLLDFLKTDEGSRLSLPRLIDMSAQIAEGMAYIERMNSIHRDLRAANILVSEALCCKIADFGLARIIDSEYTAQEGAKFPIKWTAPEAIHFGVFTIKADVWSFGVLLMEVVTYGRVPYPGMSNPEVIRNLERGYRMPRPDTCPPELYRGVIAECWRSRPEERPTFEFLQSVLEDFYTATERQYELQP
# Rattus norvegicus [6] = test: Time at which plasma concentration stays above IC70 for BTK autophosphorylation at Y223 in rat whole blood in Lewis rat collagen-induced arthritis model at 0.5 mg/kg, po qd measured during 24 hrs dosing
# Rattus norvegicus [7] = test: Time at which plasma concentration stays above in vitro IC70 for BTK autophosphorylation at Y223 in rat whole blood in Lewis rat collagen-induced arthritis model at 0.125 to 2 mg/kg, po bid measured during 12 hrs dosing
# Cytochrome P450 2D6 = Cytochrome P450 2D6 (Homo sapiens, UniProt P10635); test: Inhibition of CYP2D6 (unknown origin); format: ADME
# Sequence of Cytochrome P450 2D6 (P10635 whole entry): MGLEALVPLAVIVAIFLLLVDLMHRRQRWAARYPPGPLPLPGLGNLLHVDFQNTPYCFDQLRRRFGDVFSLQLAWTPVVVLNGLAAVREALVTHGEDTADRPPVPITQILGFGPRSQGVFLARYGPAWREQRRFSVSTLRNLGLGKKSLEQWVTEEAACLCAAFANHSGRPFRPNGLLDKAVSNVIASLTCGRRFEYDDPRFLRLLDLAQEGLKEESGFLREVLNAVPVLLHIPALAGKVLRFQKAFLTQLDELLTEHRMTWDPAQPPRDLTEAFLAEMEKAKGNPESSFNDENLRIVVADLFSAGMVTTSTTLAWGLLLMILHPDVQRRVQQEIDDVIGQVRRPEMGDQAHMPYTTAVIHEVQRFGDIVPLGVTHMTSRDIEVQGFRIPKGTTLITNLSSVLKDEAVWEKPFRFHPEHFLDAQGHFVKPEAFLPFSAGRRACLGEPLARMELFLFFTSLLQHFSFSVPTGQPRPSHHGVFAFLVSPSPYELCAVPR
# Rattus norvegicus [8] = test: Antiinflammatory activity in Lewis rat collagen-induced arthritis model assessed as reduction in ankle diameter AUC at 16 mg/kg, po administered qd for 16 days relative to control; format: functional; conditions: 384 h
# Cytochrome P450 1A2 = Cytochrome P450 1A2 (Homo sapiens, UniProt P05177); test: Inhibition of CYP1A2 (unknown origin); format: ADME
# Sequence of Cytochrome P450 1A2 (P05177 whole entry): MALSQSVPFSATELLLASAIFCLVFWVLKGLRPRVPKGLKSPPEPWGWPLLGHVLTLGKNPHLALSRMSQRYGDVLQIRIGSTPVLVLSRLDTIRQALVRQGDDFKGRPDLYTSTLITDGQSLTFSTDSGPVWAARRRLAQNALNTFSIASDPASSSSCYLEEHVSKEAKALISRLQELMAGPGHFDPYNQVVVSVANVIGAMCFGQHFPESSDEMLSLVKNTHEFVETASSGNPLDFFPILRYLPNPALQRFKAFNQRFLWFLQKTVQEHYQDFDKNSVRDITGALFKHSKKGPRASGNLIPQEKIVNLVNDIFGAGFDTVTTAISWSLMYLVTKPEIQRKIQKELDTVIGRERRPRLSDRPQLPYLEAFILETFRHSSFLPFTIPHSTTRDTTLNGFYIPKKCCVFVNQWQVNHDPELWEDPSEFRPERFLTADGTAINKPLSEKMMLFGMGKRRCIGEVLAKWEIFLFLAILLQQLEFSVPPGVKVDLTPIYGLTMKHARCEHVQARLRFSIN
# physchem = conditions: buffer, pH 7.4
# Hepatocyte = test: Cytotoxicity against human primary hepatocytes assessed as reduction in cell viability; format: cell-based
# [9] = Plasma clearance in rat at 0.2 mg/kg, iv or 1 mg/kg, po administered as single dose via cassette dosing; format: ADME, organism-based
# Nav1.5 = Nav1.5 (Homo sapiens, UniProt Q14524); test: Inhibition of human Nav1.5 expressed in CHO cells at 1 uM incubated for 3 to 5 mins by Qpatch clamp assay; format: cell-based; conditions: CHO cells expressing human Nav1.5
# Sequence of Nav1.5 (Q14524 whole entry): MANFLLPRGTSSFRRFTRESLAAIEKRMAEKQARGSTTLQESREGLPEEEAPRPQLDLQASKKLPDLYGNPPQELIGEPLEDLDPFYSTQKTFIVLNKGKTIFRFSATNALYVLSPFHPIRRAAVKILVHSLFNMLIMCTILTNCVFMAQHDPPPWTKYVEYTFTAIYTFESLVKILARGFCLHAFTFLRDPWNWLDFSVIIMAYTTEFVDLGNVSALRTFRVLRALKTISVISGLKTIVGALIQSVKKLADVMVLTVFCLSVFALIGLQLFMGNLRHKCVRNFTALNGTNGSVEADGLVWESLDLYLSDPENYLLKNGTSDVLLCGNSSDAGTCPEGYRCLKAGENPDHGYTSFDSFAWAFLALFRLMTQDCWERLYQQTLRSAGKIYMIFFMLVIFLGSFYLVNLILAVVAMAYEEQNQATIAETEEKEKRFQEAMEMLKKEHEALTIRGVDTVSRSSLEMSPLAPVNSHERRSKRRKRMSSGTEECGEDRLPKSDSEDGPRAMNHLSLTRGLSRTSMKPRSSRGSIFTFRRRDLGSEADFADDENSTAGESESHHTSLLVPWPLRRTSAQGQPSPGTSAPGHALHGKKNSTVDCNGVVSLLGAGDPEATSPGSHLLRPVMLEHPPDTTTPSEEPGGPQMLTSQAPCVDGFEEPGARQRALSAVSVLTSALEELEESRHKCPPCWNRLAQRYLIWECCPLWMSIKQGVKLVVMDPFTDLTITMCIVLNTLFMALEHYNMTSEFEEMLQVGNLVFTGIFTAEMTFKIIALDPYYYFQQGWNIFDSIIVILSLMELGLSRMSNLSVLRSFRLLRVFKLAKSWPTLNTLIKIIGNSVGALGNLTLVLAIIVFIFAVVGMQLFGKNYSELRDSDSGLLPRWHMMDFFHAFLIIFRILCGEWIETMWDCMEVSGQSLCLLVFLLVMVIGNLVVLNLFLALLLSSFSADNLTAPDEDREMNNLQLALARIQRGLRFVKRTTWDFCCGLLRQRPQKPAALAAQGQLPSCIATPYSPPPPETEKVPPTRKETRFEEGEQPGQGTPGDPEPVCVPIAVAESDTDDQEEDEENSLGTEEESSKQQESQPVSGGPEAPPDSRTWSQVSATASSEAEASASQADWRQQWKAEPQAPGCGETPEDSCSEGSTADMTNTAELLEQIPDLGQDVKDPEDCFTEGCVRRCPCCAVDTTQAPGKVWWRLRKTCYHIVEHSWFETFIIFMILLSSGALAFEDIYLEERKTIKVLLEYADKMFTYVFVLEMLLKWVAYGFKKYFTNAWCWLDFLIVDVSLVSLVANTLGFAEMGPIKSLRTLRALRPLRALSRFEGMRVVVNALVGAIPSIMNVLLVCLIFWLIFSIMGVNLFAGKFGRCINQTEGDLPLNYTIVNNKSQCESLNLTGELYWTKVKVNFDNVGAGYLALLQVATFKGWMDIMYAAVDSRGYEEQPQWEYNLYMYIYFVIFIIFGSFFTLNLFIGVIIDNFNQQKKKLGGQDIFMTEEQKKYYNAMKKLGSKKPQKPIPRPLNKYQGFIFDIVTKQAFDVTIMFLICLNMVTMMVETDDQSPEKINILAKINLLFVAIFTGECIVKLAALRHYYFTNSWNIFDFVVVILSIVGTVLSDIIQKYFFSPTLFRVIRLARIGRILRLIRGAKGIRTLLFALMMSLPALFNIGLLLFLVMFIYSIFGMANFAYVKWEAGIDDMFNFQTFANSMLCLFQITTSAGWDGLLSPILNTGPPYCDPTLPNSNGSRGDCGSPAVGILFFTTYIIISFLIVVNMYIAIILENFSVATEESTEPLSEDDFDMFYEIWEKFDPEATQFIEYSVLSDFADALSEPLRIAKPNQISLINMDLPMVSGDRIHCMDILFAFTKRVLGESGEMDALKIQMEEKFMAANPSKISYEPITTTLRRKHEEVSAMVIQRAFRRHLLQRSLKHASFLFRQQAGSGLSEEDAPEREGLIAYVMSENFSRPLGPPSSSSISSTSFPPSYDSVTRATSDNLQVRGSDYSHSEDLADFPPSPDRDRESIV
# Rattus norvegicus [10] = test: Time at which plasma concentration stays above in vitro IC70 for BTK autophosphorylation at Y223 in rat whole blood in Lewis rat collagen-induced arthritis model at 1 to 16 mg/kg, po qd measured during 24 hrs dosing
structure (smiles),measurement,setting,value
C[C@H]1CN(C2COC2)CCN1c1ccc(Nc2cc(-c3ccnc(N4CCn5c(cc6c5CC(C)(C)C6)C4=O)c3CO)cn(C)c2=O)nc1 [FENEBRUTINIB],inhibition in vivo at 0.5 mg/kg,Rattus norvegicus [1],79%
same,CLhep predicted at 1 µM,[2],9.4 mL/min/kg
same,Vd,[3],5.42 L/kg
same,bioavailability,[4],65.1%
same,inhibition in vivo at 2 mg/kg,Rattus norvegicus [5],96%
same,inhibition at 1 µM,BLK,6%
same,Time,Rattus norvegicus [6],12 h
same,Time,Rattus norvegicus [7],6 h
same,IC50,Cytochrome P450 2D6,> 5 µM
same,inhibition in vivo at 16 mg/kg,Rattus norvegicus [8],99%
same,IC50,Cytochrome P450 1A2,> 5 µM
same,logD,physchem,1.6
same,IC50,Hepatocyte,> 300 µM
same,clearance,[9],27.4 mL/min/kg
same,inhibition at 1 µM,Nav1.5,0.6%
same,Time,Rattus norvegicus [10],12 h
